Assay results from the supplement of paper PMC10307832.

Key:
Assay in all cases: relative viability (nuclei count vs DMSO), 5 days (fraction); higher = more cells survive
TPCA-1 + Alpelisib = compound: C1=CC(=CC=C1C2=CC(=C(S2)NC(=O)N)C(=O)N)F [TPCA-1] + Cc1nc(NC(=O)N2CCC[C@H]2C(N)=O)sc1-c1ccnc(C(C)(C)C(F)(F)F)c1 [Alpelisib] (partner 2 µM)
In short: (§1)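 A single step with final 0.05% Triton X-100, 1% formaldehyde and 1 ug/ml Hoechst fixed the cells and stained nuclei 5 days after treatment. Lung cancer cell lines in 1536-well plates had been treated by pin tool the day after seeding with one drug alone or a fixed anchor-drug dose plus five library-drug doses (not always all listed) in √10 steps, and nuclei were counted on 4× images. Relative viability is the ratio of nuclei in treated wells to nuclei in vehicle wells, taken as the median of duplicate plates.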

[1] = compound: C1/C(=C\C2=CC=CS2)/C(=O)/C(=C/C3=CC=CS3)/C1 + CC(=O)c1c(C)c2cnc(Nc3ccc(N4CCNCC4)cn3)nc2n(C2CCCC2)c1=O [Palbociclib] (partner 0.5 µM)
In short: as §1

TPCA-1 + Trametinib = compound: C1=CC(=CC=C1C2=CC(=C(S2)NC(=O)N)C(=O)N)F [TPCA-1] + CC(=O)Nc1cccc(-n2c(=O)n(C3CC3)c(=O)c3c(Nc4ccc(I)cc4F)n(C)c(=O)c(C)c32)c1 [Trametinib] (partner 0.02 µM)
In short: as §1

[2] = compound: C[C@]12O[C@H](C[C@]1(O)CO)n1c3ccccc3c3c4c(c5c6ccccc6n2c5c31)CNC4=O [Lestaurtinib] + CCNC(=O)c1noc(-c2cc(C(C)C)c(O)cc2O)c1-c1ccc(CN2CCOCC2)cc1 [Luminespib] (partner 0.01 µM)
In short: as §1

| Cell Line | relative viability (TPCA-1 + Alpelisib; first compound 0.04 µM) | relative viability (TPCA-1 + Alpelisib; first compound 0.1265 µM) | relative viability (TPCA-1 + Alpelisib; first compound 0.4 µM) | relative viability (TPCA-1 + Alpelisib; first compound 1.265 µM) | relative viability (TPCA-1 + Alpelisib; first compound 4 µM) | relative viability ([1]; first compound 0.2 µM) | relative viability ([1]; first compound 0.6325 µM) | relative viability ([1]; first compound 2 µM) | relative viability ([1]; first compound 6.325 µM) | relative viability ([1]; first compound 20 µM) | relative viability (TPCA-1 + Trametinib; first compound 0.04 µM) | relative viability (TPCA-1 + Trametinib; first compound 0.1265 µM) | relative viability (TPCA-1 + Trametinib; first compound 0.4 µM) | relative viability (TPCA-1 + Trametinib; first compound 1.265 µM) | relative viability (TPCA-1 + Trametinib; first compound 4 µM) | relative viability ([2]; first compound 0.005 µM) | relative viability ([2]; first compound 0.01581 µM) | relative viability ([2]; first compound 0.05 µM) | relative viability ([2]; first compound 0.1581 µM) | relative viability ([2]; first compound 0.5 µM) |
| --- | --- | --- | --- | --- | --- | --- | --- | --- | --- | --- | --- | --- | --- | --- | --- | --- | --- | --- | --- | --- |
| HCC-15 | 0.862 | 0.705 | 0.915 | 0.863 | 0.779 | 0.721 | 0.734 | 0.824 | 0.682 | 0.73 | 0.402 | 0.372 | 0.347 | 0.346 | 0.311 | 0.365 | 0.552 | 0.341 | 0.294 | 0.157 |
| LCLC-103H | 1.06 | 0.901 | 0.992 | 1 | 1.03 | 0.49 | 0.456 | 0.469 | 0.426 | 0.469 | 0.689 | 0.671 | 0.689 | 0.725 | 0.684 | 1.04 | 1.08 | 0.767 | 0.501 | 0.34 |
| NCI-H23 | 0.756 | 0.665 | 0.705 | 0.587 | 0.512 | 0.553 | 0.557 | 0.551 | 0.478 | 0.462 | 0.535 | 0.377 | 0.362 | 0.382 | 0.358 | 0.241 | 0.217 | 0.242 | 0.184 | 0.188 |
| NCI-H1792 | 0.733 | 0.714 | 0.646 | 0.675 | 0.389 | 0.665 | 0.656 | 0.713 | 0.331 | 0.627 | 0.489 | 0.333 | 0.394 | 0.374 | 0.243 |  | 0.618 | 0.332 | 0.464 | 0.158 |
| NCI-H460 | 0.638 | 0.464 | 0.518 | 0.373 | 0.105 | 0.201 | 0.174 | 0.224 | 0.244 | 0.146 | 0.172 | 0.161 |  | 0.145 | 0.154 | 0.0333 | 0.0274 | 0.0352 | 0.0238 | 0.0199 |
| NCI-H2085 | 0.935 | 0.903 | 1 | 0.939 | 0.933 | 0.482 | 0.5 | 0.484 | 0.46 | 0.495 |  | 0.613 | 0.655 | 0.532 | 0.514 | 0.436 | 0.449 | 0.57 | 0.41 | 0.337 |
| PC-14 | 0.952 | 0.879 | 0.965 | 0.787 | 0.75 | 0.668 | 0.563 | 0.523 | 0.435 | 0.501 | 0.885 | 0.687 | 0.79 | 0.705 | 0.57 | 0.154 | 0.154 | 0.172 | 0.108 | 0.151 |
| HOP-62 | 1.05 | 0.602 | 0.898 | 0.874 | 0.914 | 0.486 | 0.499 | 0.465 | 0.41 | 0.473 | 0.407 | 0.373 | 0.418 | 0.47 | 0.366 | 0.9 | 1.07 | 0.855 | 0.913 | 0.274 |
| NCI-H2087 | 1.06 | 0.871 | 0.916 | 1.06 | 0.418 | 0.272 | 0.215 | 0.271 | 0.168 | 0.303 | 0.201 | 0.163 | 0.231 | 0.152 | 0.139 | 0.158 | 0.253 | 0.163 | 0.148 | 0.165 |
| NCI-H1793 | 0.724 | 0.646 | 0.735 | 0.828 | 0.566 | 0.343 | 0.368 | 0.351 | 0.306 | 0.315 | 0.466 | 0.473 | 0.4 | 0.451 | 0.384 | 0.193 | 0.249 | 0.156 | 0.154 | 0.161 |
| PC-3 [JPC-3] | 1.01 | 1.02 | 1.04 | 0.957 | 0.958 |  | 0.587 | 0.5 | 0.43 | 0.523 | 0.755 | 0.692 | 0.73 | 0.757 | 0.642 | 0.647 | 0.645 | 0.53 | 0.525 | 0.255 |
| H3255 | 0.784 | 0.655 | 0.642 | 0.529 | 0.554 | 0.325 | 0.33 | 0.324 | 0.308 | 0.297 | 0.728 | 0.545 | 0.62 | 0.596 | 0.519 | 0.766 | 0.94 | 0.835 | 0.716 | 0.486 |
| EMC-BAC-2 | 0.791 | 0.705 | 0.721 | 0.724 | 0.589 | 0.548 | 0.549 | 0.526 | 0.472 | 0.518 | 0.869 | 0.811 | 0.979 | 0.742 | 0.906 | 1.15 | 1.33 | 0.806 | 0.434 | 0.323 |
| CAL-12T | 1.22 | 0.907 | 0.93 | 1.1 | 0.707 | 0.531 | 0.654 | 0.555 | 0.49 | 0.489 | 0.326 | 0.331 | 0.345 | 0.358 | 0.254 | 0.484 | 0.52 | 0.556 | 0.256 | 0.06 |
| NCI-H650 | 1.11 | 1.02 | 1.02 | 0.633 | 0.859 | 0.431 | 0.33 | 0.345 | 0.322 | 0.356 | 1.08 | 0.857 | 0.948 | 0.862 | 0.813 | 0.824 | 0.703 | 0.635 | 0.322 | 0.239 |
| SK-MES-1 | 0.935 | 0.704 | 0.996 | 0.691 | 0.586 | 0.347 | 0.321 | 0.329 | 0.311 | 0.292 | 0.536 | 0.524 | 0.507 | 0.429 | 0.39 | 0.714 | 0.619 | 0.391 | 0.229 | 0.261 |
| NCI-H1355 | 0.802 | 0.567 | 0.871 | 0.761 | 0.555 | 0.381 | 0.379 | 0.408 | 0.34 | 0.382 | 0.494 | 0.384 | 0.406 | 0.381 | 0.41 | 0.646 | 0.625 | 0.455 | 0.493 | 0.261 |
| NCI-H838 | 0.981 | 0.882 | 0.957 | 0.857 | 0.716 | 0.225 | 0.212 | 0.211 | 0.203 | 0.194 | 0.599 | 0.457 | 0.533 | 0.336 | 0.406 | 0.321 | 0.321 | 0.284 | 0.227 | 0.197 |
| LK-2 | 1.23 | 0.758 | 0.946 | 0.692 | 0.627 | 0.639 |  | 0.706 | 0.787 | 0.732 | 0.76 | 0.535 | 0.873 | 0.659 | 0.504 | 0.202 | 0.19 | 0.17 | 0.208 | 0.203 |
| NCI-H322M | 0.846 | 0.74 | 0.764 | 0.688 | 0.785 | 0.517 | 0.508 | 0.529 | 0.431 | 0.468 | 0.499 | 0.455 | 0.51 | 0.449 | 0.494 | 0.773 | 0.713 | 0.449 | 0.337 | 0.329 |
| NCI-H661 | 1.01 | 0.2 | 0.768 | 0.546 | 0.487 | 0.405 | 0.403 | 0.41 | 0.394 | 0.421 | 0.67 | 0.541 | 0.535 | 0.573 | 0.377 | 0.895 | 0.88 | 0.853 | 0.729 | 0.363 |
| NCI-H2228 | 0.869 | 0.809 | 1.02 | 0.609 | 0.485 | 0.784 | 0.697 | 0.61 | 0.793 | 0.686 | 0.443 | 0.517 | 0.671 | 0.346 | 0.155 | 0.185 | 0.144 | 0.137 | 0.123 | 0.109 |
| NCI-H1395 | 1.16 | 0.997 | 1.14 | 1.07 | 0.941 | 0.616 | 0.683 | 0.612 | 0.566 | 0.599 | 1.23 | 0.939 | 1.11 | 1.05 | 0.884 | 0.654 | 0.668 | 0.616 | 0.472 | 0.374 |
| NCI-H520 | 0.869 | 0.783 | 0.844 | 0.892 | 0.788 | 0.256 | 0.251 | 0.223 |  | 0.227 | 0.773 | 0.69 | 0.75 | 0.674 | 0.278 | 0.226 | 0.202 | 0.234 | 0.217 | 0.244 |
| NCI-H441 | 0.903 | 0.497 | 0.611 | 0.439 | 0.327 | 0.242 | 0.217 | 0.234 | 0.197 | 0.25 | 0.402 | 0.405 | 0.422 | 0.459 | 0.266 | 0.375 | 0.277 | 0.329 | 0.399 | 0.409 |
